We go through 96 compounds from PubChem BioAssay AID1117319 (Southern Research Institute, 2015).

Results filed as inconclusive are left out.

This assay concerns the target Virion infectivity factor (Human immunodeficiency virus type 1 group M subtype B (isolate BH10)) + Virion infectivity factor (Human immunodeficiency virus type 1 group M subtype B (isolate BRU/LAI)) + Virion infectivity factor (Human immunodeficiency virus type 1 group M subtype B (isolate PCV12)) + Virion infectivity factor (Human immunodeficiency virus type 1 group M subtype B (isolate HXB2)) + DNA dC->dU-editing enzyme APOBEC-3G (Homo sapiens) (UniProt P69720+P69721+P69722+P69723+Q9HC16). The experiment in a line: inhibitors of Vif binding to APOBEC3G peptide, primary screen, biochemical, TR-FRET, GST-Vif 1-94, biotin-A3G peptide, dose response retest (AID 1117319).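 Note: Vif residues 1-94 fused to GST binding biotinylated APOBEC3G peptide 110-148.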
Regarding `Cc1ccc(NC(=O)CCCCCC2NC(=O)NC2C)cc1` (stereo unspecified), the half-inhibitory concentration (IC50) was 0.71 µM.
`Cc1cc(/C=C2\C(=O)NC(=O)N(Cc3ccco3)C2=O)c(C)n1-c1ccc(O)cc1`: the IC50 was 5.88 µM.
With `Clc1ccc2nc3ccccn3c2c1`, the IC50 is 98.3 µM.
On to `CCCC1=NN2C(=N)/C(=C\c3ccc(SCc4ccco4)o3)C(=O)N=C2S1`, for which the 50% inhibitory concentration (IC50) was 8.14 µM.
Then `C=C(c1ccc(OCCO)cc1)c1ccc(OCCO)cc1`, with 56.6 µM; and `CNc1c(C(=O)O)ccc2c1C(=O)c1ccccc1C2=O`, with 25 µM; and `Cc1ccc(-n2nc(-c3ccc(N)cc3)cc2N)cc1`, with 33.5 µM.
Then `CCOC(=O)C1CCCN(C(=O)c2ccc(CNc3c(N4CCC(C)CC4)c(=O)c3=O)cc2)C1` (stereo unspecified), with 31.4 µM.
As for `CCOc1cccc(OCC)c2c(C)[n+](CC3CCCO3)c(C)c1-2` (stereo unspecified), the IC50 is 0.85 µM.
Consider `CC(=C/C(=O)O)/C=C/c1ccc(Cl)o1`, for which the IC50 is 27.4 µM.
The result for `Oc1ccc(/C=N/N2CCOCC2)c(O)c1O` reads 12.5 µM; that for `O=C(/C=C/c1ccc(O)c(O)c1)OC1C(O)CC(OC(=O)/C=C/c2ccc(O)c(O)c2)(C(=O)O)CC1O` (stereo unspecified), 16.2 µM; that for `O=C1CCCC(O)=C1N=Nc1cccc(C(=O)O)c1`, 5.61 µM.
Take `O=C(O)CCCCC1SCC2NC(=O)NC21` (stereo unspecified): the concentration for half-maximal inhibition (IC50) was 0.27 µM.
Consider `CCOC(=O)C1=C(O)/C(=C/c2ccc(CNC(=O)C(=O)Nc3ccc(C)cc3)o2)N=C1C`, for which the IC50 is 33.3 µM.
Take `Nc1c(C(=O)NC2CC2)sc2nc3c(c(-c4ccco4)c12)CC/C3=C/c1ccco1`: the IC50 is under 0.195 µM.
As for `Cc1cc(C)cc(NC(=O)CSc2nc3c(c(=O)n2C)SC(C)C3)c1` (stereo unspecified), the concentration for half-maximal inhibition (IC50) was 21.8 µM.
Take `CCn1c(COc2ccc3c(c2)OCO3)nnc1SCC(=O)c1ccc(Cl)cc1`: the half-maximal inhibitory concentration (IC50) was 78.1 µM.
With `S=c1[nH]nc(-c2cccnc2)n1/N=C/C=C/c1ccco1`, the IC50 was 3.97 µM.
For `[O-][n+]1onc2c1CCc1c-2nc(-c2ccccc2)n1OCc1ccccc1`, the half-maximal inhibitory concentration (IC50) was 76.9 µM.
Then `Cc1cc(C)c([N+](=O)[O-])cc1-c1ccc(/C=N/c2c(-c3ccco3)nc3ccccn23)o1`, with 42.4 µM; and `CC1CCCN(Cc2c(O)ccc3c2O/C(=C\c2ccco2)C3=O)C1` (stereo unspecified), with 2.89 µM; and `O=C(O)C1OC(Oc2c(-c3ccc(O)c(O)c3)oc3cc(O)cc(O)c3c2=O)C(O)C(O)C1O` (stereo unspecified), with 2.7 µM.
On to `O=C(COC(=O)Cc1ccc(Cl)cc1)NCc1ccco1`, for which the half-maximal inhibitory concentration (IC50) was 7.37 µM.
For `O=C1CC(c2ccco2)CC(O)=C1C=NCC1CCNCC1` (stereo unspecified), the half-maximal inhibitory concentration (IC50) was 13.5 µM.
Take `Cn1c(SCC(=O)c2cc(Cl)c(Cl)s2)nnc1-c1ccco1`: the IC50 is 30.7 µM.
With `CCNc1ccc(Br)cc(C(=O)/C=C/c2ccc(Cl)cc2)c1=O`, the 50% inhibitory concentration (IC50) was 7.05 µM.
In the case of `CC1(C)C/C(=C(/C#N)C(N)=O)CCO1`, the IC50 was 80.7 µM.
With `O=S(=O)(O)c1cc(O)c2ccc(Nc3ccccc3)cc2c1`, the IC50 is 1.38 µM.
On to `CCC(=O)NC1=C(Cl)C(=O)C(NC(=O)CC)=C(Cl)C1=O`, for which the IC50 was 22.9 µM.
On to `O/C=c1\ccc2cccc3nc(C(F)(F)F)nc1c23`, for which the IC50 is 2.79 µM.
Then `COc1ccc(NC(=O)CN(C)C(=O)c2cccc(-n3cccc3)c2)cc1`, with 14.9 µM; and `NC(=O)/C(=C/c1ccco1)C(N)=S`, with 9.35 µM; and `Cc1cccc(N2C(=O)/C(=C/c3ccc(CN(CCC#N)S(C)(=O)=O)o3)C(=O)NC2=S)c1`, with 22.9 µM.
The result for `CC(/C=C1\SC(=S)N(CCCC(=O)Nc2ccc(C(=O)O)c(O)c2)C1=O)=C\c1ccccc1` reads 5.1 µM; that for `COc1c(OC(C)=O)ccc(/C=C/c2ccc3ccccc3n2)c1[N+](=O)[O-]`, 97.2 µM; that for `O=C(Cc1csc(N2CCOCC2)n1)N/N=C/c1ccc(O)c(O)c1O`, 1.3 µM.
Then `O=C(Nc1ccc2nc(-c3ccco3)c(-c3ccco3)nc2c1)N1CCCCCC1`, with 0.58 µM; and `CCC1C/C(=C/c2ccco2)C(=O)/C(=C/c2ccco2)C1` (stereo unspecified), with 2.59 µM; and `O=C(O)CSc1c2c(nc3cc(C(=O)N4CCOCC4)ccc13)CCCC2`, with 5.6 µM.
In the case of `O=C(NCCO)Nc1ccc2nc(-c3ccco3)c(-c3ccco3)nc2c1`, the 50% inhibitory concentration (IC50) was 0.24 µM.
For the compound `CN(CC(=O)Nc1cccc(F)c1)C(=O)c1cc(-c2ccco2)nc2ccccc12`, the IC50 is 4.8 µM.
On to `O=C(CCCN1C(=O)/C(=C\c2ccco2)SC1=S)Nc1ccc2ccccc2c1`, for which the concentration for half-maximal inhibition (IC50) was 7.25 µM.
As to `O=c1oc(/C=C/c2ccco2)nc2sc3c(c12)CCC3`, the IC50 is 15.5 µM.
`COc1cccc(CNC(=O)Cn2c(=O)oc3ccccc32)c1OC`: the concentration for half-maximal inhibition (IC50) is 85.7 µM.
The result for `CCNC(=O)COC(=O)c1cc(-c2ccco2)nc2ccccc12` reads 3.93 µM; that for `COC(=O)c1ccc(C(=O)OC)c(NC(=O)Cc2cccs2)c1`, 4.22 µM; that for `Cc1c(C)n(C(=O)CSc2nc3ccccc3[nH]2)c2ccccc12`, 39.7 µM.
The result for `CCOc1ccc(CNc2ccc(N3CCCC3)cc2)cc1` reads 6.59 µM.
On to `O=C(c1ccc2nc(-c3ccco3)c(-c3ccco3)nc2c1)N1CCC2(CC1)OCCO2`, for which the IC50 is 0.35 µM.
The result for `Cc1ccc(NC(=O)c2ccc(Cl)c(N3C(=O)C=CC3=O)c2)cc1` reads 81.2 µM; that for `O=C(CN1C(=O)NC2(CCCCCCC2)C1=O)NCc1ccc2c(c1)OCO2`, 99.2 µM.
Consider `O=c1cc2oc3cc(O)c(O)cc3c(-c3ccccc3O)c-2cc1O`, for which the IC50 was 0.84 µM.
Consider `COC(=O)CSc1nnc(CNC(=O)Cc2ccccc2)n1-c1ccccc1OC`, for which the IC50 is 77.7 µM.
Consider `CC1(OC(=O)C2CCCC2)C(=O)C=C2C=C(c3ccsc3)OC=C2C1=O` (stereo unspecified), for which the concentration for half-maximal inhibition (IC50) is 8.75 µM.
Then `O=C(COC(=O)c1c2c(nc3ccccc13)/C(=C\c1ccco1)CC2)NC1CCCC1`, with 3.67 µM.
Regarding `Cc1ccc(S(=O)(=O)Cn2nnnc2C(CC(C)C)N2CCN(C)CC2)cc1` (stereo unspecified), the 50% inhibitory concentration (IC50) is 9.85 µM.
On to `Cc1c(N=C2C=C(Br)C(=O)C(Br)=C2)c(=O)n(-c2ccccc2)n1C`, for which the IC50 was 14.1 µM.
Take `CCN(CC)c1ccc(C=Nc2ccc(N(C)C)cc2)c(O)c1`: the 50% inhibitory concentration (IC50) was 35.7 µM.
Turning to `Cc1noc(C)c1COc1ccc(C(=O)OCC(=O)N2c3ccccc3NC(=O)C2(C)C)cc1`, the IC50 was 14.9 µM.
In the case of `O=[N+]([O-])c1cc2ccccc2c(O)c1O`, the IC50 is 22.2 µM.
As for `COc1cc(NCCCNC(C)C)c2nccc(C)c2c1`, the IC50 is 52.8 µM.
Turning to `Cc1cccc(C)c1NS(=O)(=O)c1c(C)[nH]c(=O)[nH]c1=O`, the IC50 was 85.4 µM.
`CC1=Nc2nc(N3CCCCC3)c(C#N)c3c4c(nc(c23)N1)N(c1ccc(C(C)C)cc1)C(=O)C4`: the IC50 is 5.27 µM.
`O=C(Nc1ccc(Br)cn1)c1coc(=O)c(Br)c1`: the 50% inhibitory concentration (IC50) is 13 µM.
As for `CCC(=O)OCCNc1cc(Sc2nc3ccccc3[nH]2)c2nonc2c1[N+](=O)[O-]`, the 50% inhibitory concentration (IC50) is 9.48 µM.
As for `Oc1cccc(/C=N/NC(=S)NCCN2CCOCC2)c1O`, the IC50 was 12.4 µM.
On to `COc1ccc2c(c1)C(=O)c1ccccc1CO2`, for which the IC50 is 52.2 µM.
For the compound `Cc1[nH]c2ccccc2c1C(=O)Cn1c(=O)oc2ccccc21`, the 50% inhibitory concentration (IC50) is 96.2 µM.
Turning to `Cc1noc(C)c1S(=O)(=O)Nc1ccc2c(c1)C(=O)N([C@@H](C)CO)C[C@H](C)[C@@H](CN(C)Cc1ccc(C(F)(F)F)cc1)OCCCC[C@H](C)O2`, the IC50 was 96 µM.
As for `CCOC(=O)N1CCN(c2ccc(O)cc2)CC1`, the IC50 is 16.8 µM.
For `Cc1cc(C(=O)Nc2sc3c(c2C#N)CCCCC3)cs1`, the half-inhibitory concentration (IC50) is 95.9 µM.
In the case of `COc1ccc(N2CCN(C(=O)COc3ccccc3)CC2)cc1`, the IC50 was 76.9 µM.
Regarding `CN(C)c1ccc(N=C/C=C2/N(C)c3ccccc3C2(C)C)cc1`, the half-maximal inhibitory concentration (IC50) is 2.19 µM.
For `CCOC(=O)c1c(C)oc2c1c(C=NCc1ccccn1)c(O)c1ccccc12`, the IC50 was 1.86 µM.
Regarding `CCNc1ccc(Br)cc(C(=O)/C=C/c2ccc3c(c2)OCO3)c1=O`, the IC50 is 24.7 µM.
With `O=C1C2C3CCCC3=C3CCCC3C2C(=O)N1c1ccccc1` (stereo unspecified), the IC50 is 3.44 µM.
In the case of `Cc1cnc(NC(=O)CSc2nnc(CNc3ccc(F)cc3)n2CC2CCCO2)s1` (stereo unspecified), the half-maximal inhibitory concentration (IC50) is 53 µM.
Regarding `CCOc1cccc(=O)c2c(C)n(C)c(C)c12`, the IC50 was 11.6 µM.
`CSc1oc(-c2ccco2)nc1S(=O)(=O)c1ccccc1`: the IC50 was 31.5 µM.
Turning to `O=C1/C(=C/c2ccco2)SC(=S)N1c1cccnc1`, the 50% inhibitory concentration (IC50) was 1.49 µM.
For `COCCNC(=O)COC(=O)c1[nH]c(C)c(C(C)=O)c1C`, the half-maximal inhibitory concentration (IC50) is 9.88 µM.
`O=S(=O)(O)c1cc(O)c2cc(Nc3ccccc3)ccc2c1`: the IC50 is 2.3 µM.
In the case of `CN=c1scc(-c2ccco2)n1/N=C/c1ccc(O)c(O)c1`, the IC50 was 9.26 µM.
Turning to `N#CC1=C(N)C2=C(N3CCCCC3)CCCC2C1(C#N)C#N` (stereo unspecified), the IC50 was 1.7 µM.
Then `COC(=O)/C(=N/Nc1ccccc1C)N1CCCc2ccccc21`, with 1.9 µM.
For the compound `CCC1=NN2C(=N)/C(=C\c3cccn3-c3cccc(Cl)c3)C(=O)N=C2S1`, the IC50 was 94.9 µM.
Consider `Cc1cc2c(N)cccc2nn1`, for which the IC50 is under 0.195 µM.
For the compound `O=C1CC(=O)N(Cc2ccco2)C(=O)N1`, the 50% inhibitory concentration (IC50) is 4.49 µM.
Then `O=C1NC(c2cccc(Br)c2)=N/C1=C\c1ccco1`, with 9.01 µM; and `CC(=O)Nc1ccc(S(=O)(=O)NCCSCc2ccco2)cc1`, with 15.3 µM.
As to `O=C(N/N=C/c1ccc(O)c(O)c1O)/C(=C/c1ccc([N+](=O)[O-])cc1)NC(=O)c1ccccc1`, the half-inhibitory concentration (IC50) was 0.87 µM.
As for `Cc1noc(/C=C/c2ccco2)c1S(=O)(=O)N1CCC(C(=O)NCc2ccco2)CC1`, the IC50 was 1.84 µM.
Take `C=C(C)C(=O)Nc1cccc(C2=NOC3(C2)C[C@H](C(N)=O)N(C(=O)COc2ccc(Cl)cc2)C3)c1` (stereo partly specified): the IC50 was 1.28 µM.
Take `COc1cccc(-c2nn3c(-c4ccccn4)nnc3s2)c1`: the concentration for half-maximal inhibition (IC50) is 81.3 µM.
As for `CCOC(=O)C1=C(N)n2c(s/c(=C/c3ccco3)c2=O)=C(C(=O)OC)C1c1ccco1` (stereo unspecified), the 50% inhibitory concentration (IC50) is 2.17 µM.
